From patent US20240270762A1, “PENICILLIN-BINDING PROTEIN INHIBITORS” (priority 2021, published 2024)
≈ marks a conversion by molar mass, not a printed value.

Tests used:
P. aeruginosa ATCC 27853 = test: microbe, parasite or virus in culture; assay type: cell-based; conditions: Pseudomonas aeruginosa, ATCC27853, read-out: MIC P. aeruginosa ATCC 27853
P. aeruginosa ATCC 35151 = test: microbe, parasite or virus in culture; assay type: cell-based; conditions: Pseudomonas aeruginosa, ATCC35151, read-out: MIC P. aeruginosa ATCC 35151
K. pneumoniae UMM = test: microbe, parasite or virus in culture; assay type: cell-based; conditions: Klebsiella pneumoniae, read-out: MIC K. pneumoniae UMM
N. gonorrhoeae FA1090 = test: Liquid broth MIC in Fastidious broth; conditions: Neisseria gonorrhoeae, FA1090, read-out: Minimum Inhibitory Concentration (MIC), N. gonorrhoeae FA 1090
E. coli AG100A = test: Broth microdilution MIC in CAMHB; assay type: cell-based; conditions: Escherichia coli, read-out: MIC E. coli AG100A
N. gonorrhoeae WHO K = test: Liquid broth MIC in Fastidious broth; conditions: Neisseria gonorrhoeae, read-out: Minimum Inhibitory Concentration (MIC), N. gonorrhoeae WHO K
Experimental: Liquid broth-based assays were used for antibacterial testing of PBP inhibitors in Neisseria gonorrhoeae. Briefly, cryo-preserved bacterial cultures of clinical strains were streaked for isolation on Chocolate Agar (72 g/L (2×) GC Agar Base (BD #228950) and 2% (2×) Hemoglobin was autoclaved at 121° C. for 20 minutes to sterilize. Once cooled to ˜50° C. the 2×GC Agar Base and 2× Hemoglobin solutions are combined and 1% IsoVitaleX Enrichment (BD #211876) was added to the solution). Strains were incubated at 36° C. and 5% CO2 to allow growth of colonies, 24 hours before inoculum preparation. 2-fold serial dilutions of test compounds were conducted in a 96 well plate with a final volume of 75 μL per well at 2-fold the final desired concentration in Fastidious broth (Remel #R07664). For preparation of assay inoculum, a direct suspension was prepared by aseptically swabbing 10-15 colonies from agar plates into culture tubes containing 2 mL of fresh sterile saline. After the dilution plates were set up, direct suspensions were then diluted in a cuvette containing sterile saline and the optical density was measured at 600 nm. Inocula were diluted such that 75 μL of this culture in Fastidious broth results in a starting bacterial concentration of 5×10^5 CFU/mL when added to the dilution plates. The plates were incubated for ˜24 hours at 36° C. and 5% CO2.

A. baumannii ATCC 19606 = test: microbe, parasite or virus in culture; assay type: cell-based; conditions: Acinetobacter baumannii, ATCC19606, read-out: MIC, A. baumannii ATCC 19606
K. pneumoniae SI-117 = test: microbe, parasite or virus in culture; assay type: cell-based; conditions: Klebsiella pneumoniae, SI117, read-out: MIC K. pneumoniae SI-117
N. gonorrhoeae CDC-0197 = test: Liquid broth MIC in Fastidious broth; conditions: Neisseria gonorrhoeae, CDC0197, read-out: Minimum Inhibitory Concentration (MIC), N. gonorrhoeae CDC-0197
N. gonorrhoeae WHO Q = test: Liquid broth MIC in Fastidious broth; conditions: Neisseria gonorrhoeae, read-out: Minimum Inhibitory Concentration (MIC), N. gonorrhoeae WHO Q
[1] = system: N. gonorrhoeae ATCC 49226; test: Liquid broth MIC in Fastidious broth; conditions: Neisseria gonorrhoeae, ATCC49226, read-out: Minimum Inhibitory Concentration (MIC), N. gonorrhoeae ATCC 49226
N. gonorrhoeae WHO L = test: Liquid broth MIC in Fastidious broth; conditions: Neisseria gonorrhoeae, read-out: Minimum Inhibitory Concentration (MIC), N. gonorrhoeae WHO L
K. pneumoniae 848844 = test: microbe, parasite or virus in culture; assay type: cell-based; conditions: Klebsiella pneumoniae, 848844, read-out: MIC K. pneumoniae 848844
E. coli 901C = test: microbe, parasite or virus in culture; assay type: cell-based; conditions: Escherichia coli, read-out: MIC E. coli 901C
E. coli ATCC 25922 = test: microbe, parasite or virus in culture; assay type: cell-based; conditions: Escherichia coli, ATCC25922, read-out: MIC E. coli 25922
[2] = target: T1, PBP3 from Pseudomonas aeruginosa (PAO1) (Pseudomonas aeruginosa, UniProt G3XD46); test: Bocillin-FL fluorescence polarization competition binding, P. aeruginosa PBP3; conditions: Binding affinity to P. aeruginosa PBP3; fluorescence polarization competition binding assay using Bocillin-FL; read-out: P. aeruginosa PBP3 Potency
T1 construct: made in house
Procedure, shortened: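 Purified PBPs pre-incubated with inhibitor (E. coli PBP3 1.5 μM, 30 min; P. aeruginosa PBP3 0.75 μM, A. baumannii PBP1a 1 μM and PBP3 0.2 μM, 15 min), then Bocillin-FL 0.1 μM (0.05 μM for PBP1a) added; FP read up to 60 min. EC50 = concentration halving bound Bocillin-FL.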

T1 sequence (G3XD46 whole entry): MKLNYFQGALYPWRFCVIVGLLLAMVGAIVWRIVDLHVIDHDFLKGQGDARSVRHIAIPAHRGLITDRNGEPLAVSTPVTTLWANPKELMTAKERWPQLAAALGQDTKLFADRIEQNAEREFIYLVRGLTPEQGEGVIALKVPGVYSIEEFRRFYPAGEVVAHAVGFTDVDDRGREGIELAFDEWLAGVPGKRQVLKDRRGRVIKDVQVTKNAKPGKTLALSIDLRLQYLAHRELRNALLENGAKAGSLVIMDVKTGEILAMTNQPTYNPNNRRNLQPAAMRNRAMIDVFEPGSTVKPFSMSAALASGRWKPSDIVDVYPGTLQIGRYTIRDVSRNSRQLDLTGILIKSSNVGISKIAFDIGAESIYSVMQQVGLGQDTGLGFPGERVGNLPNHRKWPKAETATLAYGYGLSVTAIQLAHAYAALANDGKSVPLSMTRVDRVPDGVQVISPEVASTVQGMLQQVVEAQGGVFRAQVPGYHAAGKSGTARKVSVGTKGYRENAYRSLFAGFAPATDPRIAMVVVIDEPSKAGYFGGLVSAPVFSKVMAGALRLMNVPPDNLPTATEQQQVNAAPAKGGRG

Row | SMILES | MIC (P. aeruginosa ATCC 27853) | MIC (P. aeruginosa ATCC 35151) | MIC (K. pneumoniae UMM) | MIC (N. gonorrhoeae FA1090) | MIC (E. coli AG100A) | MIC (N. gonorrhoeae WHO K) | MIC (A. baumannii ATCC 19606) | MIC (K. pneumoniae SI-117) | MIC (N. gonorrhoeae CDC-0197) | MIC (N. gonorrhoeae WHO Q) | MIC [1] | MIC (N. gonorrhoeae WHO L) | MIC (K. pneumoniae 848844) | MIC (E. coli 901C) | MIC (E. coli ATCC 25922) | IC50 [2]
1 | CCN1CCN(C(=O)NC(C(=O)N[C@H]2Cc3cccc(C(=O)O)c3OB2O)c2ccc(CP(=O)(O)O)cc2)C(=O)C1=O (stereo partly drawn) [Example 20, (3R)-3-(2-(4-ethyl-2,3-dioxopiperazine-1-carboxamido)-2-(4-(phosphonomethyl)phenyl)acetamido)-2-hydroxy-3,4-dihydro-2H-benzo[e][1,2]oxaborinine-8-carboxylic acid] | > 128 µg/mL | < 1 µg/mL | 32 to 64 µg/mL (≈ 53.1 to 106 µM) | < 1 µg/mL | 8 to 16 µg/mL (≈ 13.3 to 26.6 µM) | 1 to 2 µg/mL (≈ 1.66 to 3.32 µM) | 32 to 64 µg/mL (≈ 53.1 to 106 µM) | > 128 µg/mL | < 1 µg/mL | < 1 µg/mL | < 1 µg/mL | 1 to 2 µg/mL (≈ 1.66 to 3.32 µM) | > 128 µg/mL | < 1 µg/mL | 8 to 16 µg/mL (≈ 13.3 to 26.6 µM) | < 10 µM
2 | CCN1CCN(C(=O)NC(C(=O)N[C@H]2Cc3cccc(C(=O)O)c3OB2O)c2ccc(P(=O)(O)O)c(O)c2)C(=O)C1=O (stereo partly drawn) [Example 21, (3R)-3-(2-(4-ethyl-2,3-dioxopiperazine-1-carboxamido)-2-(3-hydroxy-4-phosphonophenyl)acetamido)-2-hydroxy-3,4-dihydro-2H-benzo[e][1,2]oxaborinine-8-carboxylic acid] | 8 to 16 µg/mL (≈ 13.2 to 26.5 µM) | < 1 µg/mL | 8 to 16 µg/mL (≈ 13.2 to 26.5 µM) | < 1 µg/mL | 8 to 16 µg/mL (≈ 13.2 to 26.5 µM) | < 1 µg/mL | 2 to 4 µg/mL (≈ 3.31 to 6.62 µM) | > 128 µg/mL | < 1 µg/mL | < 1 µg/mL | < 1 µg/mL | < 1 µg/mL | > 128 µg/mL | < 1 µg/mL | 8 to 16 µg/mL (≈ 13.2 to 26.5 µM) | < 10 µM
3 | CCN1CCN(C(=O)NC(C(=O)N[C@H]2Cc3cccc(C(=O)O)c3OB2O)c2cccc(CP(=O)(O)O)c2)C(=O)C1=O (stereo partly drawn) [Example 22, (3R)-3-(2-(4-ethyl-2,3-dioxopiperazine-1-carboxamido)-2-(3-(phosphonomethyl)phenyl)acetamido)-2-hydroxy-3,4-dihydro-2H-benzo[e][1,2]oxaborinine-8-carboxylic acid] | > 128 µg/mL | < 1 µg/mL | 32 to 64 µg/mL (≈ 53.1 to 106 µM) | < 1 µg/mL | 8 to 16 µg/mL (≈ 13.3 to 26.6 µM) | 4 to 8 µg/mL (≈ 6.64 to 13.3 µM) | 32 to 64 µg/mL (≈ 53.1 to 106 µM) | > 128 µg/mL | 1 to 2 µg/mL (≈ 1.66 to 3.32 µM) | 1 to 2 µg/mL (≈ 1.66 to 3.32 µM) | 1 to 2 µg/mL (≈ 1.66 to 3.32 µM) | 16 to 32 µg/mL (≈ 26.6 to 53.1 µM) | > 128 µg/mL | < 1 µg/mL | 32 to 64 µg/mL (≈ 53.1 to 106 µM) | < 10 µM
4 | CCN1CCN(C(=O)NC(C(=O)N[C@H]2Cc3cccc(C(=O)O)c3OB2O)c2c(F)cc(P(=O)(O)O)cc2F)C(=O)C1=O (stereo partly drawn) [Example 25, (3R)-3-(2-(2,6-difluoro-4-phosphonophenyl)-2-(4-ethyl-2,3-dioxopiperazine-1-carboxamido)acetamido)-2-hydroxy-3,4-dihydro-2H-benzo[e][1,2]oxaborinine-8-carboxylic acid] | > 128 µg/mL | 2 to 4 µg/mL (≈ 3.2 to 6.41 µM) | 32 to 64 µg/mL (≈ 51.3 to 103 µM) | < 1 µg/mL | 32 to 64 µg/mL (≈ 51.3 to 103 µM) | 1 to 2 µg/mL (≈ 1.6 to 3.2 µM) | > 128 µg/mL | > 128 µg/mL | < 1 µg/mL | 1 to 2 µg/mL (≈ 1.6 to 3.2 µM) | < 1 µg/mL | 1 to 2 µg/mL (≈ 1.6 to 3.2 µM) | > 128 µg/mL | < 1 µg/mL | > 128 µg/mL | < 10 µM
5 | CC(=O)NC(C(=O)N[C@H]1Cc2cccc(C(=O)O)c2OB1O)c1ccc(P(=O)(O)O)cc1 (stereo partly drawn) [Example 26, (3R)-3-(2-acetamido-2-(4-phosphonophenyl)acetamido)-2-hydroxy-3,4-dihydro-2H-benzo[e][1,2]oxaborinine-8-carboxylic acid] | > 128 µg/mL | 8 to 16 µg/mL (≈ 17.3 to 34.6 µM) | > 128 µg/mL | 16 to 32 µg/mL (≈ 34.6 to 69.2 µM) | 32 to 64 µg/mL (≈ 69.2 to 138 µM) | 16 to 32 µg/mL (≈ 34.6 to 69.2 µM) | > 128 µg/mL | > 128 µg/mL | 16 to 32 µg/mL (≈ 34.6 to 69.2 µM) | 16 to 32 µg/mL (≈ 34.6 to 69.2 µM) | 16 to 32 µg/mL (≈ 34.6 to 69.2 µM) | 16 to 32 µg/mL (≈ 34.6 to 69.2 µM) | > 128 µg/mL | 8 to 16 µg/mL (≈ 17.3 to 34.6 µM) | > 128 µg/mL | 50 to 250 µM
6 | CCC(=O)NC(C(=O)N[C@H]1Cc2cccc(C(=O)O)c2OB1O)c1ccc(P(=O)(O)O)cc1 (stereo partly drawn) [Example 27, (3R)-2-hydroxy-3-(2-(4-phosphonophenyl)-2-propionamidoacetamido)-3,4-dihydro-2H-benzo[e][1,2]oxaborinine-8-carboxylic acid] | > 128 µg/mL | 8 to 16 µg/mL (≈ 16.8 to 33.6 µM) | > 128 µg/mL | 4 to 8 µg/mL (≈ 8.4 to 16.8 µM) | > 128 µg/mL | 16 to 32 µg/mL (≈ 33.6 to 67.2 µM) | > 128 µg/mL | > 128 µg/mL | 16 to 32 µg/mL (≈ 33.6 to 67.2 µM) | 16 to 32 µg/mL (≈ 33.6 to 67.2 µM) | 16 to 32 µg/mL (≈ 33.6 to 67.2 µM) | 16 to 32 µg/mL (≈ 33.6 to 67.2 µM) | > 128 µg/mL | 8 to 16 µg/mL (≈ 16.8 to 33.6 µM) | > 128 µg/mL | 10 to 50 µM
7 | CC(C)C(=O)NC(C(=O)N[C@H]1Cc2cccc(C(=O)O)c2OB1O)c1ccc(P(=O)(O)O)cc1 (stereo partly drawn) [Example 28, (3R)-2-hydroxy-3-(2-isobutyramido-2-(4-phosphonophenyl)acetamido)-3,4-dihydro-2H-benzo[e][1,2]oxaborinine-8-carboxylic acid] | > 128 µg/mL | 8 to 16 µg/mL (≈ 16.3 to 32.6 µM) | > 128 µg/mL | 4 to 8 µg/mL (≈ 8.16 to 16.3 µM) | > 128 µg/mL | 16 to 32 µg/mL (≈ 32.6 to 65.3 µM) | > 128 µg/mL | > 128 µg/mL | 16 to 32 µg/mL (≈ 32.6 to 65.3 µM) | 16 to 32 µg/mL (≈ 32.6 to 65.3 µM) | 16 to 32 µg/mL (≈ 32.6 to 65.3 µM) | 16 to 32 µg/mL (≈ 32.6 to 65.3 µM) | > 128 µg/mL | 8 to 16 µg/mL (≈ 16.3 to 32.6 µM) | > 128 µg/mL | 10 to 50 µM
8 | CC(C)(C)C(=O)NC(C(=O)N[C@H]1Cc2cccc(C(=O)O)c2OB1O)c1ccc(P(=O)(O)O)cc1 (stereo partly drawn) [Example 29, (3R)-2-hydroxy-3-(2-(4-phosphonophenyl)-2-pivalamidoacetamido)-3,4-dihydro-2H-benzo[e][1,2]oxaborinine-8-carboxylic acid] | 32 to 64 µg/mL (≈ 63.5 to 127 µM) | 2 to 4 µg/mL (≈ 3.97 to 7.93 µM) | 32 to 64 µg/mL (≈ 63.5 to 127 µM) | 4 to 8 µg/mL (≈ 7.93 to 15.9 µM) | > 128 µg/mL | 16 to 32 µg/mL (≈ 31.7 to 63.5 µM) | 32 to 64 µg/mL (≈ 63.5 to 127 µM) | > 128 µg/mL | 16 to 32 µg/mL (≈ 31.7 to 63.5 µM) | 16 to 32 µg/mL (≈ 31.7 to 63.5 µM) | 16 to 32 µg/mL (≈ 31.7 to 63.5 µM) | 16 to 32 µg/mL (≈ 31.7 to 63.5 µM) | > 128 µg/mL | 8 to 16 µg/mL (≈ 15.9 to 31.7 µM) | > 128 µg/mL | 10 to 50 µM
